The text below walks through data of PubChem BioAssay (NCI).

Test systems include COLO 205 colon; DLD-1 colon; HOP-92 NSCLC; LOX IMVI melanoma; NCI-H460 lung; SF-295 CNS; SF-539 CNS; SR leukemia; UACC-257 melanoma; UO-31 renal.
Assay in all cases: NCI-60 cell line screen, 48 h

Molecules are shown by their SMILES. Where “and” joins values, the source holds several entries; their conditions need not be identical. Identical values can stand only once.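 Each compound was tested at five concentrations against cells in 96-well plates for 48 hours. GI50 marks 50% less growth. Definition used: TGI = concentration required for complete inhibition of growth.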 Where a SMILES comes first, the peptide text is derived from it. [ ]: non-standard residue; d: D form. The star is where a group is joined. ξ: configuration not given here. NMeN = CN[C@@H](CC(N)=O)C(=O)O; NMeV = CN[C@H](C(=O)O)C(C)C; ξNMeV = CNC(C(=O)O)C(C)C; Boc = CC(C)(C)OC(=O)*; ξNMeA = CNC(C)C(=O)O

For the compound `COc1ccc(C(=O)OC2C=COC(C)C2OC(=O)c2ccc(OC)cc2)cc1` (configuration not stated), the TGI with COLO 205 colon is greater than 100 µM; with DLD-1 colon it was greater than 52.8 µM; in the assay with HOP-92 NSCLC, 37.1 µM; in the assay on LOX IMVI melanoma, 29.8 µM; with NCI-H460 lung, greater than 100 µM; in the assay on SF-295 CNS, greater than 100 µM. In addition, the TGI is 33.6 µM in the assay on SF-539 CNS, 61.9 µM with SR leukemia, greater than 72.4 µM with UACC-257 melanoma and greater than 100 µM with UO-31 renal.

For the compound `O=C(Nc1ccc(F)cc1)C(=O)C(C1OC(=O)c2ccccc21)[N+](=O)[O-]` (configuration not stated), the TGI in the assay with COLO 205 colon, in the assay on DLD-1 colon, in the assay on HOP-92 NSCLC, in the assay on LOX IMVI melanoma, with NCI-H460 lung and in the assay with SF-295 CNS was greater than 100 µM throughout. Moreover, the TGI in the assay on SF-539 CNS, in the assay with SR leukemia, in the assay with UACC-257 melanoma and in the assay with UO-31 renal was greater than 100 µM in each case.

Take `COC(=O)C12C3C4C5C3(C#N)C1C5(C(=O)OC)C42C(=O)N(C(C)C)C(C)C` (configuration not stated): the TGI with COLO 205 colon was greater than 100 µM; in the assay with DLD-1 colon, greater than 70.6 µM; with HOP-92 NSCLC, greater than 100 µM; with LOX IMVI melanoma, greater than 100 µM; with NCI-H460 lung it was greater than 100 µM; in the assay with SF-295 CNS, greater than 100 µM. Moreover, the TGI with SF-539 CNS was greater than 100 µM; in the assay with SR leukemia, 33.3 µM; in the assay on UACC-257 melanoma, greater than 100 µM; in the assay with UO-31 renal it was greater than 100 µM.

With `COC(=O)C(C)N(C)C(=O)[C@H](CC(N)=O)N(C)C(=O)[C@@H]1CCCN1C(=O)[C@H](C(C)C)N(C)C(=O)C(C(C)C)N(C)C(=O)[C@@H](NC(=O)OC(C)(C)C)C(C)C` (some centres not stated) (Boc-V[ξNMeV][NMeV]P[NMeN][ξNMeA]-OMe), the GI50 with COLO 205 colon is 34.9 µM; with HOP-92 NSCLC it was greater than 100 µM; in the assay on LOX IMVI melanoma, 13.5 µM; in the assay on NCI-H460 lung, 17.9 µM; in the assay on SF-295 CNS, greater than 100 µM; with SF-539 CNS it was greater than 100 µM. Moreover, the GI50 with UACC-257 melanoma and in the assay on UO-31 renal was greater than 100 µM in each case. Further, the TGI in the assay with COLO 205 colon is greater than 100 µM; in the assay with DLD-1 colon, greater than 100 µM; in the assay on HOP-92 NSCLC it was greater than 100 µM; with LOX IMVI melanoma, 50 µM and 27 µM; with NCI-H460 lung, > 50 µM and 32.7 µM; in the assay with SF-295 CNS, greater than 100 µM. In addition, the TGI is greater than 100 µM with SF-539 CNS; greater than 100 µM in the assay with SR leukemia; greater than 100 µM with UACC-257 melanoma; 50 µM and > 100 µM with UO-31 renal.

Turning to `CCCCCCCCCCC(O)C1CCC(C(O)CCC(O)C2CCC(CCCCCCC[C@H](O)CC3=C[C@@H](C)OC3=O)O2)O1` (some centres not stated), the TGI in the assay with COLO 205 colon, with DLD-1 colon, in the assay on HOP-92 NSCLC, in the assay on LOX IMVI melanoma, in the assay on NCI-H460 lung and in the assay on SF-295 CNS was greater than 100 µM in each case. For the same compound, the TGI in the assay with SF-539 CNS is greater than 100 µM; in the assay on SR leukemia it was greater than 100 µM; in the assay on UACC-257 melanoma it was greater than 100 µM; in the assay on UO-31 renal, greater than 86.1 µM. For the same compound, the GI50 in the assay with LOX IMVI melanoma was 2.24 µM; with UACC-257 melanoma it was 0.461 µM.

Regarding `CCN(CC)CCNC(=O)c1nn(C)c(=S)[nH]c1=S`, the TGI in the assay with COLO 205 colon, in the assay with DLD-1 colon, with HOP-92 NSCLC, with LOX IMVI melanoma, with NCI-H460 lung and in the assay with SF-295 CNS was greater than 100 µM each time. Further, the TGI in the assay on SF-539 CNS, in the assay on SR leukemia, with UACC-257 melanoma and in the assay on UO-31 renal was greater than 100 µM each time.

On to `CC(=O)N/C(=C\c1cccc([N+](=O)[O-])c1)c1nc2c3c(ccc2[nH]1)C(=O)c1ccccc1C3=O`, for which the TGI in the assay on COLO 205 colon, with DLD-1 colon, in the assay on HOP-92 NSCLC, in the assay with LOX IMVI melanoma, in the assay on NCI-H460 lung and in the assay with SF-295 CNS was greater than 100 µM in each case. The TGI is greater than 100 µM in the assay on SF-539 CNS, greater than 100 µM with SR leukemia and greater than 69.3 µM in the assay with UO-31 renal.

Regarding `Nc1nc(=S)[nH]c(C(=O)Nc2ccc(Cl)c(Cl)c2)c1-c1ccc(Cl)cc1`, the TGI in the assay with COLO 205 colon, in the assay with DLD-1 colon, in the assay with HOP-92 NSCLC, with LOX IMVI melanoma, in the assay on NCI-H460 lung and in the assay with SF-295 CNS was greater than 100 µM in each case. The TGI with SF-539 CNS, with SR leukemia, with UACC-257 melanoma and with UO-31 renal was greater than 100 µM each time.

Regarding `CCOC(=O)NC(=O)c1cn(CCCOC(=O)CCCCCCCCCCC(=O)OCCCn2cc(C(=O)NC(=O)OCC)c(=O)n(C)c2=O)c(=O)n(C)c1=O`, the TGI in the assay with COLO 205 colon, in the assay on DLD-1 colon, with HOP-92 NSCLC, with LOX IMVI melanoma, in the assay with NCI-H460 lung and in the assay on SF-295 CNS was greater than 100 µM throughout. Further, the TGI in the assay with SF-539 CNS, in the assay with SR leukemia, in the assay on UACC-257 melanoma and in the assay with UO-31 renal was greater than 100 µM each time.

For `CC(=O)/C(=C\C1=CCCO1)C(=O)Nc1ccccc1C`, the TGI in the assay with DLD-1 colon, in the assay on HOP-92 NSCLC, in the assay on LOX IMVI melanoma, with NCI-H460 lung, with SF-295 CNS and in the assay on SF-539 CNS was greater than 100 µM each time. Moreover, the TGI in the assay on SR leukemia, in the assay with UACC-257 melanoma and in the assay with UO-31 renal was greater than 100 µM in each case.

For the compound `CC(=O)Nc1c(C)ccc2c1C(=O)c1ccccc1C2=O`, the TGI in the assay with COLO 205 colon, in the assay on DLD-1 colon, in the assay with HOP-92 NSCLC, in the assay on LOX IMVI melanoma, in the assay with NCI-H460 lung and in the assay with SF-295 CNS was greater than 100 µM throughout. The TGI with SF-539 CNS, with SR leukemia, with UACC-257 melanoma and with UO-31 renal was greater than 100 µM throughout.

Regarding `COC(=O)C12CC3CC(C1)CC(C(=O)OC)(C3)C2`, the TGI with DLD-1 colon, in the assay on HOP-92 NSCLC, in the assay with LOX IMVI melanoma, in the assay on NCI-H460 lung, with SF-295 CNS and in the assay on SF-539 CNS was greater than 100 µM throughout. Moreover, the TGI in the assay with SR leukemia, in the assay on UACC-257 melanoma and in the assay with UO-31 renal was greater than 100 µM in each case.

On to `Cc1nc2cc(N)c(F)cc2[nH]1`, for which the TGI in the assay on COLO 205 colon, in the assay on DLD-1 colon, in the assay with HOP-92 NSCLC, in the assay on LOX IMVI melanoma, with NCI-H460 lung and with SF-295 CNS was greater than 100 µM in each case. The TGI in the assay on SF-539 CNS, in the assay on SR leukemia, in the assay with UACC-257 melanoma and with UO-31 renal was greater than 100 µM in each case.

As to `O=C1c2ccccc2C2(O)NC(=S)N(c3ccccc3)C12O` (configuration not stated), the TGI in the assay with COLO 205 colon, in the assay on DLD-1 colon, in the assay on HOP-92 NSCLC, in the assay with LOX IMVI melanoma, in the assay with NCI-H460 lung and in the assay with SF-295 CNS was greater than 100 µM each time. Further, the TGI in the assay with SF-539 CNS, in the assay with SR leukemia, in the assay on UACC-257 melanoma and in the assay on UO-31 renal was greater than 100 µM throughout.

As for `CCOC(=O)C1=C(Nc2ccc(Cl)cc2Cl)OC/C1=N\NS(=O)(=O)c1ccc(C)cc1`, the TGI in the assay on COLO 205 colon, with DLD-1 colon, in the assay with HOP-92 NSCLC, in the assay on LOX IMVI melanoma, with NCI-H460 lung and in the assay with SF-295 CNS was greater than 100 µM throughout. The TGI in the assay on SF-539 CNS, in the assay on SR leukemia, with UACC-257 melanoma and in the assay on UO-31 renal was greater than 100 µM in each case.

`C[C@]12CC[C@H](OCCC#N)CC1=CC[C@@H]1C2CC[C@]2(C)/C(=N/OCCC#N)CCC12` (some centres not stated): the TGI in the assay with COLO 205 colon is greater than 100 µM; in the assay with DLD-1 colon, greater than 100 µM; in the assay with HOP-92 NSCLC, greater than 64.4 µM; in the assay on LOX IMVI melanoma, greater than 100 µM; in the assay with NCI-H460 lung, greater than 100 µM; with SF-295 CNS, greater than 100 µM. For the same compound, the TGI in the assay on SF-539 CNS, in the assay with SR leukemia, with UACC-257 melanoma and in the assay with UO-31 renal was greater than 100 µM in each case.

For `Cc1cccc(C)c1NC(=O)CCc1nnc2s/c(=C\c3ccc(Cl)cc3)c(=O)n12`, the TGI in the assay with COLO 205 colon, with DLD-1 colon, with HOP-92 NSCLC, in the assay on LOX IMVI melanoma, in the assay with NCI-H460 lung and in the assay with SF-295 CNS was greater than 100 µM in each case. Moreover, the TGI in the assay on SF-539 CNS, with SR leukemia, in the assay with UACC-257 melanoma and in the assay with UO-31 renal was greater than 100 µM throughout.
